{"source": "PubChem BioAssay AID1259407", "about": "(Chemical Carcinogenesis Research Information System (CCRIS), 2018)", "system": "CCRIS mutagenicity, Ames/micronucleus/aberration tests", "test": "CCRIS mutagenicity studies", "key": {"[1]": {"details": "Test System: AMES SALMONELLA TYPHIMURIUM, Strain/Indicator: TA98, Metabolic Activation: NONE, Method: PREINCUBATION"}, "[2]": {"details": "Test System: AMES SALMONELLA TYPHIMURIUM, Strain/Indicator: TA100, Metabolic Activation: NONE, Method: PREINCUBATION"}, "[3]": {"details": "Test System: AMES SALMONELLA TYPHIMURIUM, Strain/Indicator: TA1535, Metabolic Activation: NONE, Method: PREINCUBATION"}, "[4]": {"details": "Test System: AMES SALMONELLA TYPHIMURIUM, Strain/Indicator: TA1537, Metabolic Activation: NONE, Method: PREINCUBATION"}}, "note": "Calls of active or inactive are those of the source. How the calls were made is not given here."}
{"compound": "OCCN1CN(CCO)CN(CCO)C1", "values": [{"measurement": "mutagenic call", "setting": "Test System: AMES SALMONELLA TYPHIMURIUM, Strain/Indicator: TA98, Metabolic Activation: HAMSTER, LIVER, S-9, AROCLOR 1254 (10%), Method: PREINCUBATION", "result": "inactive; negative"}, {"measurement": "mutagenic call", "setting": "[1]", "result": "inactive; negative"}, {"measurement": "mutagenic call", "setting": "Test System: AMES SALMONELLA TYPHIMURIUM, Strain/Indicator: TA98, Metabolic Activation: RAT, LIVER, S-9, AROCLOR 1254 (10%), Method: PREINCUBATION", "result": "inactive; negative"}, {"measurement": "mutagenic call", "setting": "Test System: AMES SALMONELLA TYPHIMURIUM, Strain/Indicator: TA100, Metabolic Activation: HAMSTER, LIVER, S-9, AROCLOR 1254 (10%), Method: PREINCUBATION", "result": "active; positive"}, {"measurement": "mutagenic call", "setting": "[2]", "result": "inactive; negative"}, {"measurement": "mutagenic call", "setting": "Test System: AMES SALMONELLA TYPHIMURIUM, Strain/Indicator: TA100, Metabolic Activation: RAT, LIVER, S-9, AROCLOR 1254 (10%), Method: PREINCUBATION", "result": "inactive; negative"}, {"measurement": "mutagenic call", "setting": "Test System: AMES SALMONELLA TYPHIMURIUM, Strain/Indicator: TA1535, Metabolic Activation: HAMSTER, LIVER, S-9, AROCLOR 1254 (10%), Method: PREINCUBATION", "result": "inactive; negative"}, {"measurement": "mutagenic call", "setting": "[3]", "result": "inactive; negative"}, {"measurement": "mutagenic call", "setting": "Test System: AMES SALMONELLA TYPHIMURIUM, Strain/Indicator: TA1535, Metabolic Activation: RAT, LIVER, S-9, AROCLOR 1254 (10%), Method: PREINCUBATION", "result": "inactive; negative"}, {"measurement": "mutagenic call", "setting": "Test System: AMES SALMONELLA TYPHIMURIUM, Strain/Indicator: TA1537, Metabolic Activation: HAMSTER, LIVER, S-9, AROCLOR 1254 (10%), Method: PREINCUBATION", "result": "inactive; negative"}, {"measurement": "mutagenic call", "setting": "[4]", "result": "inactive; negative"}, {"measurement": "mutagenic call", "setting": "Test System: AMES SALMONELLA TYPHIMURIUM, Strain/Indicator: TA1537, Metabolic Activation: RAT, LIVER, S-9, AROCLOR 1254 (10%), Method: PREINCUBATION", "result": "inactive; negative"}]}
{"compound": "Nn1nnc2c([nH]c3ccccc32)c1=O", "values": [{"measurement": "mutagenic call", "setting": "Test System: AMES SALMONELLA TYPHIMURIUM, Strain/Indicator: TA97, Metabolic Activation: NONE, Method: PREINCUBATION", "result": "active; positive"}, {"measurement": "mutagenic call", "setting": "Test System: AMES SALMONELLA TYPHIMURIUM, Strain/Indicator: TA97, Metabolic Activation: S-9 (10%), Method: PREINCUBATION", "result": "active; positive"}, {"measurement": "mutagenic call", "setting": "[1]", "result": "active; positive"}, {"measurement": "mutagenic call", "setting": "Test System: AMES SALMONELLA TYPHIMURIUM, Strain/Indicator: TA98, Metabolic Activation: S-9 (10%), Method: PREINCUBATION", "result": "active; positive"}, {"measurement": "mutagenic call", "setting": "[2]", "result": "active; positive"}, {"measurement": "mutagenic call", "setting": "Test System: AMES SALMONELLA TYPHIMURIUM, Strain/Indicator: TA100, Metabolic Activation: S-9 (10%), Method: PREINCUBATION", "result": "active; positive"}, {"measurement": "mutagenic call", "setting": "Test System: AMES SALMONELLA TYPHIMURIUM, Strain/Indicator: TA102, Metabolic Activation: NONE, Method: PREINCUBATION", "result": "active; positive"}, {"measurement": "mutagenic call", "setting": "Test System: AMES SALMONELLA TYPHIMURIUM, Strain/Indicator: TA102, Metabolic Activation: S-9 (10%), Method: PREINCUBATION", "result": "active; positive"}]}
{"compound": "CC(C)(C)C(=O)C(Oc1ccc(Cl)cc1)n1ccnc1", "note": "(stereo not given)", "values": [{"measurement": "mutagenic call", "setting": "[1]", "result": "inactive; negative"}, {"measurement": "mutagenic call", "setting": "Test System: AMES SALMONELLA TYPHIMURIUM, Strain/Indicator: TA98, Metabolic Activation: RAT, LIVER, S-9, PCB, Method: PREINCUBATION", "result": "inactive; negative"}, {"measurement": "mutagenic call", "setting": "[2]", "result": "inactive; negative"}, {"measurement": "mutagenic call", "setting": "Test System: AMES SALMONELLA TYPHIMURIUM, Strain/Indicator: TA100, Metabolic Activation: RAT, LIVER, S-9, PCB, Method: PREINCUBATION", "result": "inactive; negative"}, {"measurement": "mutagenic call", "setting": "[3]", "result": "inactive; negative"}, {"measurement": "mutagenic call", "setting": "Test System: AMES SALMONELLA TYPHIMURIUM, Strain/Indicator: TA1535, Metabolic Activation: RAT, LIVER, S-9, PCB, Method: PREINCUBATION", "result": "inactive; negative"}, {"measurement": "mutagenic call", "setting": "[4]", "result": "inactive; negative"}, {"measurement": "mutagenic call", "setting": "Test System: AMES SALMONELLA TYPHIMURIUM, Strain/Indicator: TA1537, Metabolic Activation: RAT, LIVER, S-9, PCB, Method: PREINCUBATION", "result": "inactive; negative"}, {"measurement": "mutagenic call", "setting": "Test System: AMES SALMONELLA TYPHIMURIUM, Strain/Indicator: TA1538, Metabolic Activation: NONE, Method: PREINCUBATION", "result": "inactive; negative"}, {"measurement": "mutagenic call", "setting": "Test System: AMES SALMONELLA TYPHIMURIUM, Strain/Indicator: TA1538, Metabolic Activation: RAT, LIVER, S-9, PCB, Method: PREINCUBATION", "result": "inactive; negative"}, {"measurement": "mutagenic call", "setting": "Test System: Ames Salmonella typhimurium, Strain/Indicator: TA98, Metabolic Activation: None, Method: Plate incorporation", "result": "inactive; negative"}, {"measurement": "mutagenic call", "setting": "Test System: Ames Salmonella typhimurium, Strain/Indicator: TA98, Metabolic Activation: None, Method: Preincubation", "result": "inactive; negative"}, {"measurement": "mutagenic call", "setting": "Test System: Ames Salmonella typhimurium, Strain/Indicator: TA98, Metabolic Activation: Rat, Liver, S-9, Aroclor, Method: Plate incorporation", "result": "inactive; negative"}, {"measurement": "mutagenic call", "setting": "Test System: Ames Salmonella typhimurium, Strain/Indicator: TA98, Metabolic Activation: Rat, Liver, S-9, Aroclor, Method: Preincubation", "result": "inactive; negative"}, {"measurement": "mutagenic call", "setting": "Test System: Ames Salmonella typhimurium, Strain/Indicator: TA100, Metabolic Activation: None, Method: Plate incorporation", "result": "inactive; negative"}, {"measurement": "mutagenic call", "setting": "Test System: Ames Salmonella typhimurium, Strain/Indicator: TA100, Metabolic Activation: None, Method: Preincubation", "result": "inactive; negative"}, {"measurement": "mutagenic call", "setting": "Test System: Ames Salmonella typhimurium, Strain/Indicator: TA100, Metabolic Activation: Rat, Liver, S-9, Aroclor, Method: Plate incorporation", "result": "inactive; negative"}, {"measurement": "mutagenic call", "setting": "Test System: Ames Salmonella typhimurium, Strain/Indicator: TA100, Metabolic Activation: Rat, Liver, S-9, Aroclor, Method: Preincubation", "result": "inactive; negative"}, {"measurement": "mutagenic call", "setting": "Test System: Ames Salmonella typhimurium, Strain/Indicator: TA1535, Metabolic Activation: None, Method: Plate incorporation", "result": "inactive; negative"}, {"measurement": "mutagenic call", "setting": "Test System: Ames Salmonella typhimurium, Strain/Indicator: TA1535, Metabolic Activation: None, Method: Preincubation", "result": "inactive; negative"}, {"measurement": "mutagenic call", "setting": "Test System: Ames Salmonella typhimurium, Strain/Indicator: TA1535, Metabolic Activation: Rat, Liver, S-9, Aroclor, Method: Plate incorporation", "result": "inactive; negative"}, {"measurement": "mutagenic call", "setting": "Test System: Ames Salmonella typhimurium, Strain/Indicator: TA1535, Metabolic Activation: Rat, Liver, S-9, Aroclor, Method: Preincubation", "result": "inactive; negative"}, {"measurement": "mutagenic call", "setting": "Test System: Ames Salmonella typhimurium, Strain/Indicator: TA1537, Metabolic Activation: None, Method: Plate incorporation", "result": "inactive; negative"}, {"measurement": "mutagenic call", "setting": "Test System: Ames Salmonella typhimurium, Strain/Indicator: TA1537, Metabolic Activation: None, Method: Preincubation", "result": "inactive; negative"}, {"measurement": "mutagenic call", "setting": "Test System: Ames Salmonella typhimurium, Strain/Indicator: TA1537, Metabolic Activation: Rat, Liver, S-9, Aroclor, Method: Plate incorporation", "result": "inactive; negative"}, {"measurement": "mutagenic call", "setting": "Test System: Ames Salmonella typhimurium, Strain/Indicator: TA1537, Metabolic Activation: Rat, Liver, S-9, Aroclor, Method: Preincubation", "result": "inactive; negative"}, {"measurement": "mutagenic call", "setting": "Test System: E. COLI, Strain/Indicator: WP2 UVRA, Metabolic Activation: NONE, Method: PREINCUBATION", "result": "inactive; negative"}, {"measurement": "mutagenic call", "setting": "Test System: E. coli, Strain/Indicator: WP2uvrA (pKM101), Metabolic Activation: None, Method: Plate incorporation", "result": "inactive; negative"}, {"measurement": "mutagenic call", "setting": "Test System: E. coli, Strain/Indicator: WP2uvrA (pKM101), Metabolic Activation: None, Method: Preincubation", "result": "inactive; negative"}, {"measurement": "mutagenic call", "setting": "Test System: E. coli, Strain/Indicator: WP2uvrA (pKM101), Metabolic Activation: Rat, Liver, S-9, Aroclor, Method: Plate incorporation", "result": "inactive; negative"}, {"measurement": "mutagenic call", "setting": "Test System: E. coli, Strain/Indicator: WP2uvrA (pKM101), Metabolic Activation: Rat, Liver, S-9, Aroclor, Method: Preincubation", "result": "inactive; negative"}, {"measurement": "mutagenic call", "setting": "Test System: In vitro micronucleus, Strain/Indicator: Human lymphocytes, Metabolic Activation: None", "result": "inactive; negative"}, {"measurement": "mutagenic call", "setting": "Test System: In vivo micronucleus, Species: Mouse, Strain/Sex: ICR/Male, Route: Oral (gavage)", "result": "inactive; negative"}, {"measurement": "mutagenic call", "setting": "Test System: Mouse lymphoma L5178Y/TK+/- cells, Strain/Indicator: WP2 uvrA (pKM101), Metabolic Activation: Rat, Liver, S-9, Aroclor 1254, Method: Suspension/plate", "result": "inactive; negative"}, {"measurement": "mutagenic call", "setting": "Test System: UDS Rat hepatocytes, Strain/Indicator: Thymidine incorporation, Method: In vivo - in vitro, measurement by autoradiography", "result": "active; positive"}]}
